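Following 48 hours of exposure in 96-well plates, responses at five concentrations were used to interpolate endpoints linearly. The concentration for 50% growth inhibition is given as GI50.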 Calls of active or inactive are those of the source. Cut-off read from the data, not from the text of the source: active = GI50 up to about 1.1 µM and inactive = higher.
Columns and labels:
Assay in all cases: NCI tumour cell line growth inhibition, 48 h
[1] = tested on: A549
[2] = tested on: IGROV-1
[3] = tested on: UACC-257
[4] = tested on: CAKI-1
[5] = tested on: SF-539
[6] = tested on: HCT-15
[7] = tested on: UACC-62
[8] = tested on: HOP-62
[9] = tested on: SF-268
[10] = tested on: NCI-H522
[11] = tested on: RPMI-8226
[12] = tested on: RXF 393
[13] = tested on: HOP-92
[14] = tested on: LOX IMVI
[15] = tested on: OVCAR-5
[16] = tested on: A498

Structure (SMILES) | GI50 [1] | GI50 [2] | GI50 [3] | GI50 [4] | GI50 [5] | GI50 [6] [µM] | GI50 [7] | GI50 [8] | GI50 [9] | GI50 [10] | GI50 [11] | GI50 [12] | GI50 [13] | GI50 [14] | GI50 [15] | GI50 [16]
CC(CCC[C@H](C)CO)[C@H]1[C@@H](O)C(O)C2[C@@H]3C[C@@H](O)C4(O)C[C@@H](O)CC[C@]4(C)C3CC[C@@]21C (stereo not given in full) | > 100 µM (inactive) | > 100 µM (inactive) | > 100 µM (inactive) | > 100 µM (inactive) | > 100 µM (inactive) | > 100 | > 100 µM (inactive) | > 100 µM (inactive) | > 100 µM (inactive) | > 100 µM (inactive) | > 100 µM (inactive) | > 100 µM (inactive) | 87.3 µM (inactive) | > 100 µM (inactive) | – | –
Clc1ccc2c(Cl)ncnc2c1I | > 100 µM (inactive) | 52.5 µM (inactive) | > 100 µM (inactive) | 64 µM (inactive) | – | > 100 | 63.7 µM (inactive) | > 100 µM (inactive) | > 100 µM (inactive) | 20.6 µM (inactive) | 33.7 µM (inactive) | 42 µM (inactive) | – | > 100 µM (inactive) | > 100 µM (inactive) | –
CCCN(CCC)c1c([N+](=O)[O-])cc(S(N)(=O)=O)cc1[N+](=O)[O-] [ORYZALIN] | 16.4 µM (inactive) | 7.29 µM (inactive) | 18.9 µM (inactive) | 13.6 µM (inactive) | 19.7 µM (inactive) | 17.5 | 18.3 µM (inactive) | 17.2 µM (inactive) | 18.3 µM (inactive) | 16.7 µM (inactive) | 26.7 µM (inactive) | – | – | 17.5 µM (inactive) | 22.4 µM (inactive) | –
Cc1nc2ccccc2c(=O)n1/N=C(\N=N\c1cc(Cl)ccc1Cl)c1ccc(N(C)C)cc1 | > 100 µM (inactive) | 49.9 µM (inactive) | – | 34 µM (inactive) | 33 µM (inactive) | > 100 | 34.5 µM (inactive) | 26.9 µM (inactive) | 41.5 µM (inactive) | 25 µM (inactive) | 26.2 µM (inactive) | 27.2 µM (inactive) | – | 63.4 µM (inactive) | – | 60.4 µM (inactive)
Cc1c[nH]c2c1C13CC1CN(C(=O)c1cc4cc(NC(=O)c5cc6ccccc6o5)ccc4[nH]1)C3=CC2=O (stereo not given) | – | – | < 0.001 µM (active) | < 0.001 µM (active) | < 0.001 µM (active) | < 0.001 | < 0.001 µM (active) | < 0.001 µM (active) | < 0.001 µM (active) | < 0.001 µM (active) | – | < 0.001 µM (active) | – | < 0.001 µM (active) | < 0.001 µM (active) | < 0.001 µM (active)
CCOC(=O)C1=C(Nc2ccc(Cl)c(Cl)c2)OC/C1=N\NS(=O)(=O)c1ccc(C)cc1 | 52.2 µM (inactive) | 68.9 µM (inactive) | 18.2 µM (inactive) | 44.2 µM (inactive) | 37.5 µM (inactive) | – | 39.4 µM (inactive) | 36.7 µM (inactive) | 45.8 µM (inactive) | 29 µM (inactive) | 21.6 µM (inactive) | 67.9 µM (inactive) | – | 9.48 µM (inactive) | > 100 µM (inactive) | 44.4 µM (inactive)
O=C(O)c1ccc(C2C(=O)N[C@@H]3CCC[C@H]23)cc1 (stereo not given in full) | > 100 µM (inactive) | > 100 µM (inactive) | > 100 µM (inactive) | > 100 µM (inactive) | > 100 µM (inactive) | > 100 | > 100 µM (inactive) | > 100 µM (inactive) | > 100 µM (inactive) | > 100 µM (inactive) | > 100 µM (inactive) | > 100 µM (inactive) | – | > 100 µM (inactive) | > 100 µM (inactive) | > 100 µM (inactive)
Cc1ccc(-n2cc(/C(N)=N/O)c3ccccc3c2=O)cc1 | > 100 µM (inactive) | > 100 µM (inactive) | > 100 µM (inactive) | – | > 100 µM (inactive) | > 100 | > 100 µM (inactive) | > 100 µM (inactive) | > 100 µM (inactive) | > 100 µM (inactive) | > 100 µM (inactive) | – | – | > 100 µM (inactive) | – | –
